This note sets out measurements from PMC9134315, “Systemic Administration of a Brain Permeable Cdk5 Inhibitor Alters Neurobehavior” (Frontiers in Pharmacology, 2022).

Usually IC50 stands for the concentration that gives 50% inhibition.

Experiment [1] deals with T1, Cdk5 (Mus musculus, UniProt P49615).
T1 construct: from tissue; host or cells: striatum of wild-type C57BL/6 mice (acute slices, or lysates after I.V. dosing)
Description: Ex vivo acute striatal brain slice pharmacology, immunoblot of phospho-Thr75 DARPP-32 and phospho-Ser1116 NR2B. In kind it is cell-based. To be noted: acute striatal slices, 1 h treatment, 0-10 µM; read-out: IC50, Cdk5-dependent phosphorylation of DARPP-32 and NR2B. On the procedure:
Brain slice pharmacology was performed as described ([Nishi et al., 2000]). Briefly, the mice were decapitated, and the brains were rapidly dissected and submerged in ice-cold normal Kreb’s solution (124 mM NaCl, 4 mM KCl, 26 mM NaHCO3, 1.25 mM KH2PO4, 1.5 mM MgSO4, 10 mM D-glucose, and 1.5 mM CaCl2). The brains were subsequently sectioned into normal Kreb’s solution at 350 µ thickness. The brain slices were transferred to a 30°C solution of normal Kreb’s containing 10 µM deaminase for a 1-h recovery period. The sections were then incubated in normal Kreb’s solution with and without the indicated compounds across the dose and time ranges indicated. The sections were rapidly snap-frozen in dry ice to terminate treatment regimes.
(§1) Immunoblotting was performed as previously described ([Umfress et al., 2021]). Mouse brains were rapidly dissected in an ice-cold solution of 50 mM NaF/PBS. The regions of interest were further dissected out and rapidly snap-frozen in dry ice. The frozen tissue was homogenized in boiling lysis buffer (1% SDS, 50 mM NaF) and sonicated with several three to four pulses at 40 dB. The samples were subsequently denatured at 90°C for 5 min. Protein concentration was determined by the BCA assay, and homogenates were diluted in 4x sample buffer, separated by SDS-PAGE, and transferred to 0.45-µm nitrocellulose membranes, blocked with 5% milk solution (1 h), and probed with primary antibodies (overnight). The following antibodies were used in the study: phospho-Ser549 synapsin I (Phosphosolutions), total synapsin I (Phosphosolutions), actin (Invitrogen), phospho-Ser1116 (in-house) ([Plattner et al., 2014]), and total NR2B (Phosphosolutions), phospho-Thr75, and total DARPP-32 (Cell Signaling Technology). Visualization was performed using the Licor CLX membrane scanner and Licor secondary antibodies.
In order to assess the functional inhibition of Cdk5 in intact brain tissue by the four compounds summarized in Figure 1, acutely prepared striatal slices were treated in a dose-dependent manner (0, 0.25, 0.5, 1, 5, and 10 µM) with each inhibitor for 1 h, and Cdk5 activity was assessed via immunoblotting the phosphorylation of established Cdk5 sites, phospho-Thr75 DARPP-32 and phospho-Ser1116 NR2B ([Bibb et al., 1999]; [Plattner et al., 2014]).
Background: Immunoblotting shows a protein as a band on a membrane.

Experiment [2] concerns the target T1, Cdk5. In words: In vivo Cdk5 inhibition after I.V. injection, immunoblot of striatal phospho-Ser549 synapsin I. As to conditions: for phospho-Ser549 synapsin I levels in the striatum: 50 mg/kg I.V. The method, then: The wild-type group housed male C57BL/6 mice 10–12 weeks of age were used for all in vivo, ex vivo, and behavioral studies. This age range was selected to be consistent with previous studies of conditional Cdk5 knockout mice ([Plattner et al., 2015]). 25–106 was administered in a 20-fold dose range intravenously (I.V.) at 10, 50, 100, and 200 mg/kg for pharmacokinetic studies. This delivery mode was used as I.V. injections to avoid first-pass drug metabolism observed using other injection methods ([Pond and Tozer, 1984]). […] All animal experiments were performed under approved protocols by the University of Alabama at Birmingham (UAB) Institutional Animal Care and Use Committees and in accordance with the guidelines of the Animal Welfare Act and the Guide for the Care and Use of Laboratory Animals.
as §1
Each of the four compounds tested in brain slices was further screened for their ability to penetrate the blood–brain barrier (BBB) and inhibit Cdk5-dependent activity in vivo. For these studies, cohorts of mice were treated with each compound via I.V. injection (50 mg/kg), and brain striatal lysates from various time points were subjected to quantitative immunoblot analysis for phosho-Ser549 Synapsin I levels. Three compounds, 20–107, 20–132, and 20–143, had no effect on Cdk5 activity compared to that of vehicle alone (data not shown). […] Moreover, this effect persisted even 24 h after dosing.

Structures are written as SMILES.

T1 sequence (P49615 whole entry): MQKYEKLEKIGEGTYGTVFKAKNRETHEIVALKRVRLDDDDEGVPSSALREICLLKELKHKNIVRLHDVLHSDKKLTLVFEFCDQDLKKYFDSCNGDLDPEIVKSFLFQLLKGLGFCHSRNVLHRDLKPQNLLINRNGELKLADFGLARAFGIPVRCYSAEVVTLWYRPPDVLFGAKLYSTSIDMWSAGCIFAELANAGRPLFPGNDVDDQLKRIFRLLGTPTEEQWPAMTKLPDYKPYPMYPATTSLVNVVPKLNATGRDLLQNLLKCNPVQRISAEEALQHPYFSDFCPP
T1 sequence (P61809 2-307 partner limits assumed): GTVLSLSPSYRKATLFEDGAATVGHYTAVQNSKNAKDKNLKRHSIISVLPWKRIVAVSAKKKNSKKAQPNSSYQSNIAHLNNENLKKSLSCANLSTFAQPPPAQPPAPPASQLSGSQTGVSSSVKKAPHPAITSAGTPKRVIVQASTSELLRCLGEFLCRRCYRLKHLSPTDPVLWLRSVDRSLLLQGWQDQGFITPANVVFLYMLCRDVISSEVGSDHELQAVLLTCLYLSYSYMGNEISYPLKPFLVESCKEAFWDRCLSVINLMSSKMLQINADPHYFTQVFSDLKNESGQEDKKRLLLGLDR

For the molecule `COc1cc(CC(=O)Nc2cc(C3CCC3)[nH]n2)cc(OC)c1OC` [25–106, N-(5-cyclobutyl-1H-pyrazol-3-yl)-2-(3,4,5-trimethoxyphenyl)acetamide], in experiment [1], the IC50 fell in the range of 500 to 1000 nM. The “phospho-Ser549 synapsin I levels in the striatum” value was “significantly reduced” in experiment [2] (2 h after injection) and “persisted” in experiment [2] (24 h after dosing). The “Cdk5-dependent phosphorylation in brain” value in experiment [2] (1 h post injection) was “remained unchanged”. Besides, in experiment [2] (24 h post injection, 10, 50, 100 and 200 mg/kg I.V., approximately equal efficacy), the “striatal phospho-Ser549 synapsin I levels, dose-response” value is recorded as “significant reduction”.
